Results from patent US11207337B2, “Co-therapy comprising canagliflozin and phentermine for the treatment of obesity and obesity related disorders” (Janssen Pharmaceutica NV, priority 2015, dated 2021).

What was measured:
[1] = metformin on its own, in the diabetic; cited from earlier work
[2] = 26 week randomized, double-blind, placebo-controlled clinical trial: body weight; type: in vivo, human; settings: for Absolute Body Weight Change from Baseline at Week 26, LS Mean / Body weight % Change from Baseline at Week 26, LS Mean: MMRM; for Body weight % Change from Baseline at Week 26, LS Mean: overweight or obese non-diabetic adults; for Absolute Body Weight Change from Baseline at Week 26, Diff. of LS Means Minus Placebo / Body weight % Change from Baseline at Week 26, Diff. of LS Means Minus Placebo: placebo-subtracted; for estimated contribution to the weight loss observed at Week 26: share of the weight loss in the co-therapy group
Method: (§1) The safety and efficacy of combination treatment with 300 mg canagliflozin and 15 mg phentermine was investigated in a 26 week, randomized, double-blind, placebo-controlled, parallel group, multi-center study. (Complete study protocol filed and available as STUDY 28431754-OBE2002 on www.clinicaltrials.gov).
(§2) The study began with a 4-week single blind placebo run-in period. […] All subjects were provided with diet and exercise counseling for weight loss (standardized non-pharmacological therapy) and were instructed to follow the diet and exercise program throughout the study.
(§3) The modified intent-to-treat (mITT) analysis set included all randomized subjects who had received at least one dose of study drug. The primary efficacy endpoint was percent change from baseline in body weight at Week 26. The secondary efficacy endpoints included (1) proportion of subjects with weight loss ≥5% at Week 26, (2) absolute change from baseline in SBP ([…]) at Week 26, and (3) absolute change from baseline in body weight at Week 26. The inclusion of canagliflozin 300 mg and phentermine 15 mg as separate treatment groups allowed for a descriptive estimate of relative contribution of the individual components to the observed weight loss in the co-therapy canagliflozin 300 mg/phentermine 15 mg group and provided efficacy and safety data on canagliflozin 300 mg in the non-diabetic, overweight/obese population. Safety analyses included treatment-emergent adverse events (referred to as adverse events in this document), laboratory tests (including chemistry and hematology), and vital signs (blood pressure and pulse rate).
The change from baseline in absolute body weight at Week 26 was analyzed with an MMRM similar to the primary efficacy endpoint.

[3] = 26 week placebo-controlled clinical trial: systolic and diastolic blood pressure; type: in vivo, human; settings: Week 26; for Systolic Blood Pressure Change From Baseline, LS Mean: MMRM; for Diastolic Blood Pressure, Mean change / Diastolic Blood Pressure, Median change / Systolic Blood Pressure, Mean change / Systolic Blood Pressure, Median change: change from baseline, observed; for Systolic Blood Pressure Change From Baseline, Diff. of LS Means Minus Placebo: placebo-subtracted
Method: as §1, §2, §3
The reduction in diastolic blood pressure of −1.6 mm Hg (baseline 80 mm Hg) was not statistically significant.

[4] = 26 week placebo-controlled clinical trial: pulse rate (vital signs); type: in vivo, human
Method: as §1, §2, §3

[5] = test system: C. elegans; settings: BOHB treatment of the worm (C. elegans); Edwards et al. 2014; cited from earlier work
[6] = Week 26, change from baseline, observed

Compound | average improvement in the HbA1c value [1] | Absolute Body Weight Change from Baseline at Week 26, LS Mean [2] [kg] | Body weight % Change from Baseline at Week 26, LS Mean [2] [%] | Absolute Body Weight Change from Baseline at Week 26, Diff. of LS Means Minus Placebo [2] [kg] | Body weight % Change from Baseline at Week 26, Diff. of LS Means Minus Placebo [2] [%] | estimated contribution to the weight loss observed at Week 26 [2] [%] | Systolic Blood Pressure Change From Baseline, LS Mean [3] [mmHg] | Diastolic Blood Pressure, Mean change [3] [mmHg] | Diastolic Blood Pressure, Median change [3] [mmHg] | Systolic Blood Pressure, Mean change [3] [mmHg] | Systolic Blood Pressure, Median change [3] [mmHg] | Systolic Blood Pressure Change From Baseline, Diff. of LS Means Minus Placebo [3] [mmHg] | Pulse Rate, Mean change ([4]; human, in vivo) [BEATS/MIN] | Pulse Rate, Median change ([4]; human, in vivo) [BEATS/MIN] | pulse, LS Mean change from baseline (SE) ([4]; human, in vivo) | pulse, LS Mean change from baseline (SE) ([4]; Week 26) | Pulse Rate, Mean change [4, 6] [BEATS/MIN] | Pulse Rate, Median change [4, 6] [BEATS/MIN] | increase in lifespan [5] [%]
CN(C)C(=N)N=C(N)N [metformin] | 1.0-1.5% |  |  |  |  |  |  |  |  |  |  |  |  |  |  |  |  |  | 
Cc1ccc([C@@H]2O[C@H](CO)[C@@H](O)[C@H](O)[C@H]2O)cc1Cc1ccc(-c2ccc(F)cc2)s1 [Cana 300 mg, (1S)-1,5-anhydro-1-[3-[[5-(4-fluorophenyl)-2-thienyl]methyl]-4-methylphenyl]-D-glucitol] |  | -1.9 | −1.9 | -1.3 | −1.3 | 18 | −3.1 | −1.32 | −1.17 | −3.31 | −1.67 | −0.4 | 1.64 | 0.83 | 0.7 (1.0) bpm |  |  |  | 
CC(C)(N)Cc1ccccc1 [Phen 15 mg, 2-methyl-1-phenylpropan-2-amine] |  | -4.1 | −4.1 | -3.5 | −3.5 | 50 | −1.4 | 0.55 | 0.67 | −1.13 | −0.33 | 1.3 |  |  |  | 4.1 (1.0) bpm | 5.02 | 4.67 | 
CC(O)CC(=O)O (stereo not drawn) [BOHB, beta-hydroxybutyrate] |  |  |  |  |  |  |  |  |  |  |  |  |  |  |  |  |  |  | ~20
